Experimental data reported in article PMC9090415, “Discovery of small molecule inhibitors of Plasmodium falciparum apicoplast DNA polymerase” (Journal of Enzyme Inhibition and Medicinal Chemistry, 2022).

Molecular target: P. falciparum apicoplast DNA polymerase (Pf-apPOL) (Plasmodium falciparum, UniProt Q8ILY1)
Experiment: Fluorescence-based high-throughput DNA polymerase assay (molecular beacon), primary screen and dose-response;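 for % inhibition ApPOL 90': test concentration in µM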;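 for % inhibition Apol 40': compound concentration given in µM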;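 for % inhibition apPOL 180': test concentration in µM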
Assay type: biochemical
Conditions: for DNA Pol: 90 min, 10 µM
In short: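 Single-point screening used 10 µM compound with 20 nM polymerase, 20 nM hairpin substrate and 6 µM dNTPs for 90 min at 25 °C. Confirmatory titrations (2.5–80 µM) followed fluorescence at three times, and IC50 was derived from a fit including a cooperativity term n.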

P. falciparum apicoplast DNA polymerase (Pf-apPOL), sequence (Q8ILY1 entry or part of it): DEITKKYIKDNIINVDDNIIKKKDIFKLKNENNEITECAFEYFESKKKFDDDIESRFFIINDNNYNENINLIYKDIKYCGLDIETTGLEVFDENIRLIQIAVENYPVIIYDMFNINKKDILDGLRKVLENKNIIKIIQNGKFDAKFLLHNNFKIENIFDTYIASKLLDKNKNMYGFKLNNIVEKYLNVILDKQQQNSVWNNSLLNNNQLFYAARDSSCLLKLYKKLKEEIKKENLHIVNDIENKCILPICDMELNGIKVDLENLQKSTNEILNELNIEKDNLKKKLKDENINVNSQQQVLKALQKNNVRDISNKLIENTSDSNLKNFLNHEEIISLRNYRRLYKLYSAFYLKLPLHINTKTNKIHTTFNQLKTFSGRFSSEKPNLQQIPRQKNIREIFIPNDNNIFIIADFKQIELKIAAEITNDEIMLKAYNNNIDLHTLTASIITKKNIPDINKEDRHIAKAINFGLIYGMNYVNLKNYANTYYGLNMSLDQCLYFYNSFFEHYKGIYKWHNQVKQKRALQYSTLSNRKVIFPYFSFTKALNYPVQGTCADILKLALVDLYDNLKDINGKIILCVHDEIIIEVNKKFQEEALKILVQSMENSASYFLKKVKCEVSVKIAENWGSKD

Structure (SMILES): Cc1ccc(NC(=O)C2CCN(C(=O)c3cc4ccsc4[nH]3)CC2)c(Br)c1 [Molecule 14, O=C(C1CCN(CC1)C(=O)c1cc2c([nH]1)scc2)Nc1ccc(cc1Br)C]
- DNA Pol ("DNA Pol" of the 186 hits list (screen value)): 67
- % inhibition Apo pol 10' (DRC-1, concentration 2.5): 11%
- % inhibition Apo pol 10' (DRC-1, concentration 5): 36%
- % inhibition Apo pol 10' (DRC-1, concentration 10): 68%
- % inhibition Apo pol 10' (DRC-1, concentration 20): 88%
- % inhibition Apo pol 10' (DRC-1, concentration 40): 87%
- % inhibition Apo pol 10' (DRC-1, concentration 80): 89%
- % inhibition Apol 90' (DRC-1, concentration 2.5): 6%
- % inhibition Apol 90' (DRC-1, concentration 5): 22%
- % inhibition Apol 90' (DRC-1, concentration 10): 48%
- % inhibition Apol 90' (DRC-1, concentration 20): 76%
- % inhibition Apol 90' (DRC-1, concentration 40): 77%
- % inhibition Apol 90' (DRC-1, concentration 80): 84%
- % inhibition apPOL 180' (DRC-1, concentration 2.5): 5%
- % inhibition apPOL 180' (DRC-1, concentration 5): 12%
- % inhibition apPOL 180' (DRC-1, concentration 10): 30%
- % inhibition apPOL 180' (DRC-1, concentration 20): 61%
- % inhibition apPOL 180' (DRC-1, concentration 40): 63%
- % inhibition apPOL 180' (DRC-1, concentration 80): 75%
- % inhibition Apo pol 5' (DRC-2, concentration 2.5): 11%
- % inhibition Apo pol 5' (DRC-2, concentration 5): 22%
- % inhibition Apo pol 5' (DRC-2, concentration 10): 43%
- % inhibition Apo pol 5' (DRC-2, concentration 20): 50%
- % inhibition Apo pol 5' (DRC-2, concentration 40): 54%
- % inhibition Apo pol 5' (DRC-2, concentration 80): 48%
- % inhibition Apol 40' (DRC-2, concentration 2.5): 9%
- % inhibition Apol 40' (DRC-2, concentration 5): 22%
- % inhibition Apol 40' (DRC-2, concentration 10): 49%
- % inhibition Apol 40' (DRC-2, concentration 20): 62%
- % inhibition Apol 40' (DRC-2, concentration 40): 68%
- % inhibition Apol 40' (DRC-2, concentration 80): 67%
- % inhibition ApPOL 90' (DRC-2, concentration 2.5): 8.49%
- % inhibition ApPOL 90' (DRC-2, concentration 5): 18%
- % inhibition ApPOL 90' (DRC-2, concentration 10): 45%
- % inhibition ApPOL 90' (DRC-2, concentration 20): 61%
- % inhibition ApPOL 90' (DRC-2, concentration 40): 68%
- % inhibition ApPOL 90' (DRC-2, concentration 80): 70%
- % inhibition apPOL 180' (DRC-2, concentration 2.5): 2.63%
- % inhibition apPOL 180' (DRC-2, concentration 5): 12%
- % inhibition apPOL 180' (DRC-2, concentration 10): 34%
- % inhibition apPOL 180' (DRC-2, concentration 20): 52%
- % inhibition apPOL 180' (DRC-2, concentration 40): 64%
- % inhibition apPOL 180' (DRC-2, concentration 80): 69%
- % inhibition Apo pol 10' (first DRC, concentration 2.5): 11%
- % inhibition Apo pol 10' (first DRC, concentration 10): 68%
- % inhibition Apol 90' (first DRC, concentration 5): 22%
- % inhibition Apol 90' (first DRC, concentration 10): 48%
- % inhibition apPOL 180' (first DRC, concentration 5): 12%
- % inhibition apPOL 180' (first DRC, concentration 20): 61%
- DNA Pol (primary screen value, DNA Pol): 67

Structure (SMILES): O=C(Cn1ccc2c(=O)[nH]ccc21)Nc1cc(F)ccc1F [Molecule 42, O=C(Cn1ccc2c1cc[nH]c2=O)Nc1cc(F)ccc1F]
- DNA Pol ('DNA Pol' of the 186 hits list (primary screen value)): 40
- DNA Pol (DNA Pol (primary screen value)): 40
- % inhibition Apo pol 10' (DRC-1, concentration 2.5): -0.6304%
- % inhibition Apo pol 10' (DRC-1, concentration 5): 13.4677%
- % inhibition Apo pol 10' (DRC-1, concentration 10): 49.4515%
- % inhibition Apo pol 10' (DRC-1, concentration 20): 62.1247%
- % inhibition Apo pol 10' (DRC-1, concentration 40): 77.421%
- % inhibition Apo pol 10' (DRC-1, concentration 80): 76.1541%
- % inhibition Apol 90' (DRC-1, concentration 2.5): -3.25%
- % inhibition Apol 90' (DRC-1, concentration 5): 4.148%
- % inhibition Apol 90' (DRC-1, concentration 10): 35.5527%
- % inhibition Apol 90' (DRC-1, concentration 20): 52.2284%
- % inhibition Apol 90' (DRC-1, concentration 40): 71.4461%
- % inhibition Apol 90' (DRC-1, concentration 80): 77.7263%
- % inhibition apPOL 180' (DRC-1, concentration 2.5): -7.978%
- % inhibition apPOL 180' (DRC-1, concentration 5): -3.837%
- % inhibition apPOL 180' (DRC-1, concentration 10): 18.2291%
- % inhibition apPOL 180' (DRC-1, concentration 20): 34.5428%
- % inhibition apPOL 180' (DRC-1, concentration 40): 57.1907%
- % inhibition apPOL 180' (DRC-1, concentration 80): 71.3539%
- % inhibition Apo pol 5' (DRC-2, concentration 2.5): 3.65%
- % inhibition Apo pol 5' (DRC-2, concentration 5): 11%
- % inhibition Apo pol 5' (DRC-2, concentration 10): 31%
- % inhibition Apo pol 5' (DRC-2, concentration 20): 40%
- % inhibition Apo pol 5' (DRC-2, concentration 40): 37%
- % inhibition Apo pol 5' (DRC-2, concentration 80): 27%
- % inhibition Apol 40' (DRC-2, concentration 2.5): 2.11%
- % inhibition Apol 40' (DRC-2, concentration 5): 13%
- % inhibition Apol 40' (DRC-2, concentration 10): 36%
- % inhibition Apol 40' (DRC-2, concentration 20): 54%
- % inhibition Apol 40' (DRC-2, concentration 40): 58%
- % inhibition Apol 40' (DRC-2, concentration 80): 54%
- % inhibition ApPOL 90' (DRC-2, concentration 2.5): 0.827%
- % inhibition ApPOL 90' (DRC-2, concentration 5): 10%
- % inhibition ApPOL 90' (DRC-2, concentration 10): 34%
- % inhibition ApPOL 90' (DRC-2, concentration 20): 54%
- % inhibition ApPOL 90' (DRC-2, concentration 40): 60%
- % inhibition ApPOL 90' (DRC-2, concentration 80): 59%
- % inhibition apPOL 180' (DRC-2, concentration 2.5): -5%
- % inhibition apPOL 180' (DRC-2, concentration 5): 4.53%
- % inhibition apPOL 180' (DRC-2, concentration 10): 24%
- % inhibition apPOL 180' (DRC-2, concentration 20): 46%
- % inhibition apPOL 180' (DRC-2, concentration 40): 59%
- % inhibition apPOL 180' (DRC-2, concentration 80): 62%
